Calls of active or inactive are those of the source. No cut-off for these calls is given here.
Assays:
[1] = tested on: Trypanosoma brucei rhodesiense; test: Inhibition of ornithine decarboxylase in Trypanosoma brucei rhodesiense STIB900 assessed as intracellular ornithine level at 50 uM after 20 mins (reference value: 4 +/- 1 uM); assay type: cell-based
[2] = Induction of GS-CYN monoadduct formation by HPLC-MS analysis; assay type: physicochemical
[3] = tested on: Trypanosoma brucei rhodesiense; test: Reduction of GSH level in Trypanosoma brucei rhodesiense at 50 uM after 40 mins by UHPLC-MS/MS analysis; assay type: functional, organism-based
[4] = tested on: Trypanosoma brucei rhodesiense; test: Induction of CYN-thiol adduct formation in Trypanosoma brucei rhodesiense assessed as extracellular CYN level at 50 uM after 10 mins by UHPLC-MS/MS analysis; assay type: organism-based; details: in vivo
[5] = tested on: Trypanosoma brucei rhodesiense; test: Induction of CYN-thiol adduct formation in Trypanosoma brucei rhodesiense assessed as extracellular CYN level at 50 uM after 40 mins by UHPLC-MS/MS analysis; assay type: organism-based; details: in vivo
[6] = tested on: Trypanosoma brucei rhodesiense; test: Induction of CYN-thiol adduct formation in Trypanosoma brucei rhodesiense assessed as extracellular CYN level at 50 uM after 30 mins by UHPLC-MS/MS analysis; assay type: organism-based; details: in vivo, 0.5 h
[7] = tested on: Trypanosoma brucei; test: Antitrypanosomal activity against Trypanosoma brucei assessed as stumpy phenotype at 50 uM after 40 mins by Giemsa staining-based light microscopy; assay type: functional, organism-based
[8] = tested on: Trypanosoma brucei rhodesiense; test: Induction of CYN-thiol adduct formation in Trypanosoma brucei rhodesiense assessed as T(S-CYN)2 bisadduct level at 50 uM after 5 mins by UHPLC-MS/MS analysis; assay type: organism-based; details: in vivo
[9] = tested on: Trypanosoma brucei; test: Antitrypanosomal activity against Trypanosoma brucei assessed as intermediate phenotype at 50 uM after 5 to 10 mins by Giemsa staining-based light microscopy; assay type: functional, organism-based
[10] = tested on: Trypanosoma brucei rhodesiense; test: Induction of CYN-thiol adduct formation in Trypanosoma brucei rhodesiense assessed as intracellular CYN level at 50 uM after 5 mins by UHPLC-MS/MS analysis; assay type: organism-based; details: in vivo
[11] = tested on: Trypanosoma brucei; test: Irreversible inhibition of trypanothione synthatase in Trypanosoma brucei using GSH as substrate at 200 uM after 240 mins
[12] = tested on: Trypanosoma brucei rhodesiense; test: Reduction of T(SH)2 level in Trypanosoma brucei rhodesiense at 50 uM after 40 mins by UHPLC-MS/MS analysis; assay type: functional, organism-based
[13] = tested on: Trypanosoma brucei rhodesiense; test: Induction of CYN-thiol adduct formation in Trypanosoma brucei rhodesiense assessed as extracellular CYN level at 50 uM after 5 mins by UHPLC-MS/MS analysis; assay type: organism-based; details: in vivo
[14] = tested on: Trypanosoma brucei; test: Inhibition of trypanothione synthatase in Trypanosoma brucei using GSH as substrate at 200 uM
[15] = tested on: Trypanosoma brucei rhodesiense; test: Induction of CYN-thiol adduct formation in Trypanosoma brucei rhodesiense assessed as extracellular CYN level at 50 uM after 20 mins by UHPLC-MS/MS analysis; assay type: organism-based; details: in vivo
[16] = tested on: Trypanosoma cruzi; test: Inhibition of trypanothione reductase in Trypanosoma cruzi using T(S)2 as substrate at 100 to 200 uM after 240 mins by spectrophotometry in presence of NADPH
[17] = Induction of T(SH)2-CYN adduct formation by HPLC-MS analysis; assay type: physicochemical
[18] = tested on: Trypanosoma brucei rhodesiense; test: Induction of CYN-thiol adduct formation in Trypanosoma brucei rhodesiense assessed as GS-CYN monoadduct level at 50 uM after 5 mins by UHPLC-MS/MS analysis; assay type: organism-based; details: in vivo

| Structure (SMILES) | INH [1] [µM] | Activity [2] | Activity [3] | Activity [4] [µM] | Activity [5] [µM] | Activity [6] [µM] | Activity [7] | Activity [8] [µM] | Activity [9] | Activity [10] [µM] | inhibition [11] [%] | Activity [12] | Activity [13] [µM] | inhibition [14] | Activity [15] [µM] | inhibition [16] | Activity [17] | Activity [18] [µM] |
| --- | --- | --- | --- | --- | --- | --- | --- | --- | --- | --- | --- | --- | --- | --- | --- | --- | --- | --- |
| NCCCC(N)(C(=O)O)C(F)F (centres undefined) | 48 | – | – | – | – | – | – | – | – | – | – | – | – | – | – | – | – | – |
| C=C(CO)C(=O)O[C@H]1CC(=C)[C@@H]2C[C@H](O)C(=C)[C@@H]2[C@H]2OC(=O)C(=C)[C@@H]21 [CYNAROPICRIN] | 50 | Active | Active | 39.6 | 37.1 | 33.3 | Active | 49 | Active | 23 | 51 | Active | 34.9 | inactive | 35.8 | inactive | Active | 42 |

From ChEMBL document CHEMBL2439993, “Cynaropicrin targets the trypanothione redox system in Trypanosoma brucei” (Bioorg Med Chem, 2013)
